According to patent US9145418B2, “Substituted 3,4-dihydropyrrolo[1,2-a]pyrazin-1(2H)-ones as protein kinase inhibitors” (NERVIANO MEDICAL SCIENCES S.R.L., priority 2011, dated 2015):

Tests used:
[1] = molecular target: Full-length human PIM1 (Homo sapiens (Human), UniProt P11309); experiment: Biochemical assay for inhibitors of PIM1 kinase activity (33P trans-phosphorylation, Dowex); settings: ATP 200 μM, Aktide 25 μM, enzyme 1 nM; read-out: PIM-1 IC50
Experimental: The short forms and abbreviations used herein have the following meaning: • Ci Curie • DMSO dimethylsulfoxide • KDa kiloDalton • microCi microCurie • mg milligram • microg microgram • ng nanogram • L liter • mL milliliter • μL microliter • M molar • mM millimolar • μM micromolar • nM nanomolar Biochemical Assay for Inhibitors of PIM1 Kinase Activity
The inhibitory activity of putative kinase inhibitors and the potency of selected compounds were determined using a trans-phosphorylation assay.
Specific peptide or protein substrates are trans-phosphorylated by their specific ser-thr or tyr kinase in the presence of ATP traced with ^33P-γ-ATP, and in the presence of their own optimal buffer and cofactors.
At the end of the phosphorylation reaction, more than 98% unlabeled ATP and radioactive ATP is captured by an excess of the ion exchange Dowex resin; the resin then settles down to the bottom of the reaction plate by gravity. Supernatant is subsequently withdrawn and transferred into a counting plate, then evaluated by β-counting.
The buffer for PIM1 assay was composed of HEPES 50 mM, at pH 7.5, with 10 mM MgCl2, 1 mM DTT, 3 μM NaVO3, and 0.2 mg/mL BSA.
Full-length human PIM1 was expressed and purified as described in Bullock A N, et al., J. Biol. Chem. 2005, 280, 41675-82.
ATP concentration: 200 μM
Enzyme concentration: 1 nM
Substrate concentration Aktide (Chemical Abstract Service Registry Number 324029-01-8): 25 μM
The test mix consisted of: • 1) 3× Enzyme mix (done in Kinase Buffer 3×), 5 μL/well • 2) 3× substrate and ATP mix (done in ddH2O), together with ^33P-γ-ATP, 5 μL/well • 3) 3× test compounds (diluted into ddH2O-3% DMSO)—5 μL/well
An automated station (Biomek FX, Beckman) was used for serial dilutions, producing 1:3 dilutions in 100% DMSO, from line A1 to A10, for all the compounds in the column. […] In a standard experiment, the highest concentration (3×) of compounds is typically 30 μM, while the lowest one is typically 1.5 nM. Each 384-well plate generates at least one curve of the standard inhibitor staurosporine and reference wells (total enzyme activity vs. no enzymatic activity) for evaluation of Z′ and signal to background (SIB) ratio.
384-well plates, V bottom (test plates) are prepared with 5 μl of compound diluted as previously described (3×) and then placed onto a PlateTrak 12 robotized station (Perkin Elmer; the robot has one 384-tip pipetting head for assay start, plus one 96-tip head for dispensing resin) together with one reservoir for Enzyme mix (3×) and one for ATP mix (3×).
Data are analyzed by an internally customized version of the “Assay Explorer” SW package, which provides sigmoidal fitting of the ten-dilution curves for IC50 determination in secondary assay/hit confirmation routines.

[2] = molecular target: Full-length human PIM2 (Homo sapiens (Human), UniProt Q9P1W9); experiment: PIM2 kinase inhibition assay: Dowex technique; assay type: biochemical; settings: ATP 4 μM, Aktide 5 μM, enzyme 1.5 nM; read-out: PIM-2 IC50
Sequence of Full-length human PIM2 (Q9P1W9 whole entry): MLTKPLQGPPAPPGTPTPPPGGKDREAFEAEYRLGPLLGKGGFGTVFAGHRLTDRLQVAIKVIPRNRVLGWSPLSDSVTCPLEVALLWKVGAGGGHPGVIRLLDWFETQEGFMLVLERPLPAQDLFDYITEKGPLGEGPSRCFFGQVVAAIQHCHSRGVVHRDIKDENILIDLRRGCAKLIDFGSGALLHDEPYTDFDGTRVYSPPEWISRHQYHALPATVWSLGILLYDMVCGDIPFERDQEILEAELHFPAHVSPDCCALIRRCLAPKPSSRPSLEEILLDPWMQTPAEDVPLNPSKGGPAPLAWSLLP
Experimental: Method for PIM2 Kinase Inhibition Assay: Dowex Technique
The buffer for PIM2 assay was composed of HEPES 50 mM, at pH 7.5, with 1 mM MgCl2, 1 mM DTT, 3 μM Na3VO4, and 0.2 mg/mL BSA.
Full-length human PIM2 was expressed and purified as described in Fedorov O, et al., PNAS 2007 104, 51, 20523-28.
Enzyme concentration=1.5 nM
Aktide substrate (Chemical Abstract Service Registry Number 324029-01-8)=5 μM
See above: same procedure as described for PIM1.

[3] = test system: MV-4-11 (biphenotypic B myelomonocytic leukemia) cells; experiment: In vitro cell proliferation assay (CellTiter-Glo); assay type: cell-based; settings: Homo sapiens, MV4-11, MV-4-11 cells, 72 hours
Experimental: In vitro Cell Proliferation Assay
MV-4-11 (biphenotypic B myelomonocytic leukemia) cells (1250 cells/well) were seeded in white 384 well-plates in complete medium (RPMI 1640 or EMEM plus 10% Fetal bovine serum) and treated with compounds dissolved in 0.1% DMSO, 24 h after seeding. The cells were incubated at 37° C. and 5% CO2 and after 72 hours the plates were processed using CellTiter-Glo assay (Promega) following the manufacturer's instruction.
CellTiter-Glo is a homogenous method based on the quantification of the ATP present, an indicator of metabolically active cells. ATP is quantified using a system based on luciferase and D-luciferin resulting into light generation. The luminescent signal is proportional to the number of cells present in culture.
Briefly 25 μl/well reagent solution were added to each wells and after 5 minutes shacking microplates were red by Envision (PerkinElmer) luminometer. The luminescent signal was proportional to the number of cells present in culture.
Inhibitory activity was evaluated comparing treated versus control data using Assay Explorer (MDL) program. IC50 was calculated using sigmoidal interpolation curve.

Sequence of Full-length human PIM1 (P11309 whole entry): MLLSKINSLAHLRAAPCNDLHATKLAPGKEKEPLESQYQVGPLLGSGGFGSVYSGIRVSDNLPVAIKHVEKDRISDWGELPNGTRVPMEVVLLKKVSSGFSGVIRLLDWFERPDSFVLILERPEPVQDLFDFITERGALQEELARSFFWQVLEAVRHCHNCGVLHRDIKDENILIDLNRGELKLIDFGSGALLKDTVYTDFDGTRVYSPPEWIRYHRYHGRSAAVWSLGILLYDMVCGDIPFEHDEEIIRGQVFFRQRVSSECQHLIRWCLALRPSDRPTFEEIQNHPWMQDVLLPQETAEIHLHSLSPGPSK

| SMILES | IC50 [1] | IC50 [2] | IC50 [3] |
| --- | --- | --- | --- |
| CN(C)C1CCN(C[C@@H](NC(=O)C[C@H]2CNC(=O)c3cc(-c4cccc(Cl)c4)cn32)C2CCCCC2)CC1 [Compound 23, 2-[(4S)-7-(3-chlorophenyl)-1-oxo-1,2,3,4-tetrahydropyrrolo[1,2-a]pyrazin-4-yl]-N-{(1S)-1-cyclohexyl-2-[4-(dimethylamino)piperidin-1-yl]ethyl}acetamide] | 1 nM | 36 nM | 1130 nM |
| CN1CCN(C[C@@H](NC(=O)C[C@H]2CNC(=O)c3cc(-c4cc(Cl)ccc4F)cn32)C2CCCCC2)CC1 [Compound 26, 2-[(4S)-7-(5-chloro-2-fluorophenyl)-1-oxo-1,2,3,4-tetrahydropyrrolo[1,2-a]pyrazin-4-yl]-N-[(1S)-1-cyclohexyl-2-(4-methylpiperazin-1-yl)ethyl]acetamide] | 2 nM | 132 nM | 1160 nM |
| CN(C)C1CCN(C[C@@H](NC(=O)C[C@H]2CNC(=O)c3cc(-c4ccc(F)c(F)c4)cn32)C2CCCCC2)CC1 [Compound 6, N-{(1S)-1-cyclohexyl-2-[4-(dimethylamino)piperidin-1-yl]ethyl}-2-[(4S)-7-(3,4-difluorophenyl)-1-oxo-1,2,3,4-tetrahydropyrrolo[1,2-a]pyrazin-4-yl]acetamide] | 8 nM | 171 nM | 3150 nM |
| CN1CCN(C[C@@H](NC(=O)C[C@H]2CNC(=O)c3cc(-c4cccc(Cl)c4)cn32)C2CCCCC2)CC1 [Compound 2, 2-[(4S)-7-(3-chlorophenyl)-1-oxo-1,2,3,4-tetrahydropyrrolo[1,2-a]pyrazin-4-yl]-N-[(1S)-1-cyclohexyl-2-(4-methylpiperazin-1-yl)ethyl]acetamide] | 1 nM | – | 1530 nM |
| CN(C)C1CCN(C[C@@H](NC(=O)C[C@H]2CNC(=O)c3cc(-c4ccnc(F)c4)cn32)C2CCCCC2)CC1 [Compound 10, N-{(1S)-1-cyclohexyl-2-[4-(dimethylamino)piperidin-1-yl]ethyl}-2-[(4S)-7-(2-fluoropyridin-4-yl)-1-oxo-1,2,3,4-tetrahydropyrrolo[1,2-a]pyrazin-4-yl]acetamide] | 6 nM | 57 nM | 6750 nM |
